Tests used:
[1] = tested on: Tetranychus urticae; assay: Efficacy against Tetranychus urticae (two-spotted spider mites), spray on kidney-bean seedling; conditions: in vivo
Experimental: Efficacy Against Tetranychus urticae (Tu; Two-spotted Spider Mites
Fifteen adult females were inoculated on a potted Kidney-bean seedling. On the next day, the chemical solution at different concentration was sprayed on the Kidney-bean seedling by a glass nozzle using an air compressor. After air-dried the Kidney-bean pot was maintained in a room kept at 25° C. and 65%RH.
On three days after treatment, the numbers of dead and alive mites were counted and mortality was calculated by Abbott's formula.
Each test was duplicated. [formula]

[2] = tested on: Pseudaletia separata; assay: whole plant or invertebrate; format: in vivo; conditions: Mythimna separata, in Zea mays, foliar, 120 h
Experimental: Efficacy Against Pseudaletia separata Walker (Ps; Rice Armyworm)
A piece of Maize leaf (ca. 7×1.5 cm) was dipped in the chemical solution at 125 ppm for 30 sec and air-dried. The leaf was placed in a glass petri dish (9 cm diameter) and five second-instar larvae of Pseudaletia separata were introduced into the petri dish. Five days after the treatment, the number of survival larvae was counted and the mortality was calculated by Abbott's formula. Each test was duplicated.

[3] = tested on: Plutella xylostella; assay: whole plant or invertebrate; format: in vivo; conditions: in Brassica oleracea, 72 h
Source text: Efficacy Against Plutella xylostella Linne (Px; Diamondback Moth)
The chemical solution at 125 ppm was sprayed on a Cabbage seedling by a glass nozzle using an air compressor. After airdried, a small leaf (ca. 5 cm diameter) was detached from the treated plant and placed in a glass petri dish (ca. 9 cm diameter). Five second-instar larvae of Plutella xylostella were introduced into the petri dish. Three days after the treatment, the number of survival larvae was counted and the mortality was calculated by Abbott's formula. Each test was duplicated.

Row | melting point [°C] | SMILES | mortality at 125 ppm [2] [%] | other results
1 | 183 to 184 | O=C(Nc1nc(C(F)(F)F)c(Cl)s1)c1ccc(Cl)c([N+](=O)[O-])c1 [Compound 80, N-(5-Chloro-4-trifluoromethylthiazol-2-yl)-4-chloro-3-nitrobenzamide] |  | 
2 | 172 to 173 | O=C(Nc1nc(C(F)(F)F)c(I)s1)c1cc(C(F)(F)F)cc(C(F)(F)F)c1 [Compound 102, N-(5-Iodo-4-trifluoromethylthiazol-2-yl)-3,5-bis-trifluoromethylbenzamide] |  | 
3 | 167 to 168 | N#CSc1sc(NC(=O)c2cccc(C(F)(F)F)c2)nc1C(F)(F)F [Compound 131, N-(5-thiocyanato-4-trifluoromethylthiazol-2-yl)-3-trifluoromethylbenzamide] |  | 

Second part, the compound before the results:

Row | SMILES | melting point [°C] | mortality at 125 ppm [2] [%] | other results
4 | O=C(Nc1nc(C(F)(F)F)c(Br)s1)c1ccc(Cl)c(Cl)c1 [Compound 19, N-(5-Bromo-4-trifluoromethylthiazol-2-yl)-3,4-dicloro-benzamide] |  |  | mortality [1]: 100%
5 | O=C(Nc1nc(C(F)(F)F)c(Br)s1)c1cccs1 [Compound 34, N-(5-Bromo-4-trifluoromethylthiazol-2-yl)thiophene-2-carboxamide] | 184 to 185 |  | 
6 | O=C(Nc1nc(C(F)(F)F)c(I)s1)c1c(Cl)cccc1Cl [Compound 44, N-(5-Iodo-4-trifluoromethylthiazol-2-yl)-2,6-dichloro-benzamide] |  | 100 | 
7 | O=C(Nc1nc(C(F)(F)F)c(I)s1)c1ccc(C(F)(F)F)cc1 [Compound 45, N-(5-Iodo-4-trifluoromethylthiazol-2-yl)-4-trifluoromethyl-benzamide] |  | 100 | mortality at 125 ppm [3]: 100%
8 | O=C(Nc1nc(C(F)(F)F)c(-c2ccc(F)cc2)s1)c1ccc(C(F)(F)F)cc1 [Compound 81, N-(5-(4-Fluorophenyl)-4-trifluoromethylthiazol-2-yl)-4-trifluoromethylbenzamide] |  | 100 | 

Source: patent publication US6737382B1, “Insecticidal aminothiazole derivatives” (Nippon Soda Co. Ltd., priority 2002, dated 2004)
